Measured values as given in ChEMBL document CHEMBL4330186, “An Isoquinoline Scaffold as a Novel Class of Allosteric HIV-1 Integrase Inhibitors” (ACS Med Chem Lett, 2019).
Values belong to the molecule of their own block, whether it stands above or below them.

Columns and labels:
[1] = target: T1, Human immunodeficiency virus type 1 integrase (Human immunodeficiency virus 1, UniProt Q7ZJM1); assay: Inhibition of LEDGF/p75-independant HIV1 His/FLAG-tagged integrase expressed in Escherichia coli BL21(DE3) by HTRF assay
T1 sequence (Q7ZJM1 whole entry): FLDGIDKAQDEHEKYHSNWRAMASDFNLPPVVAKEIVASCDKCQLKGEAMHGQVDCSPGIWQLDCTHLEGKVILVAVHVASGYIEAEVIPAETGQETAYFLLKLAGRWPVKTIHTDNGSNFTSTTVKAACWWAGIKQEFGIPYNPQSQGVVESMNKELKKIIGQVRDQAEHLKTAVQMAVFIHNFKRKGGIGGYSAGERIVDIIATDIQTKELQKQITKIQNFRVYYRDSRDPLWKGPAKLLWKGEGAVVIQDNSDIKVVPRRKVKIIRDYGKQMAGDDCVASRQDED

[2] = Drug metabolism in DMSO d6 at 100 degC for 3 days by 1H NMR analysis
[3] = Stability of the compound at 60 degC for 17 hrs by 1H NMR analysis; assay type: physicochemical
[4] = test system: Human immunodeficiency virus 1; assay: Antiviral activity against HIV-1 NL4-3 harboring integrase A128T mutant infected in human HeLa TZM-bl cells after 48 hrs by p24 ELISA; assay type: functional, organism-based; details: Human immunodeficiency virus 1, NL4-3, 48 h
[5] = target: T1, Human immunodeficiency virus type 1 integrase; assay: Inhibition of LEDGF/p75-dependant HIV1 His/FLAG-tagged integrase expressed in Escherichia coli BL21(DE3) by HTRF assay
[6] = target: T1, Human immunodeficiency virus type 1 integrase; assay: Induction of HIV1 His/FLAG-tagged integrase hyper-multimerization expressed in Escherichia coli BL21(DE3) by HTRF assay
[7] = target: T1, Human immunodeficiency virus type 1 integrase; assay: Inhibition of LEDGF/p75 binding to HIV1 His/FLAG-tagged integrase expressed in Escherichia coli BL21(DE3) by HTRF assay
[8] = test system: Human immunodeficiency virus 1; assay: Antiviral activity against HIV-1 NL4-3 harboring wild-type integrase infected in human HeLa TZM-bl cells after 48 hrs by p24 ELISA; assay type: functional, organism-based; details: Human immunodeficiency virus 1, NL4-3, 48 h
[9] = target: T1, Human immunodeficiency virus type 1 integrase; assay: Inhibition of biotinylated-TAR-RNA binding to HIV1 His6-tagged integrase expressed in Escherichia coli BL21(DE3) preincubated for 2 hrs followed by RNA addition and measured after 2 hrs by Alpha screen assay
[10] = Drug metabolism assessed as 1-([1,1'-biphenyl]-4-yl)-3-(chroman-6-yl)isoquinoline-4-carbaldehyde formation at 100 degC for 17 days by HSQC NMR analysis
[11] = Drug metabolism assessed as 1-([1,1'-biphenyl]-4-yl)-3-(chroman-6-yl)isoquinoline-4-carbaldehyde formation at 100 degC for 17 days by 1H NMR analysis
[12] = Drug level treated with 2-(1-(biphenyl-4-yl)-3-(chroman-6-yl)isoquinolin-4-yl)-2-tert-butoxyacetic acid at 100 degC for 17 days by HSQC NMR analysis; assay type: physicochemical; details: 408 h
[13] = Drug level treated with 2-(1-(biphenyl-4-yl)-3-(chroman-6-yl)isoquinolin-4-yl)-2-tert-butoxyacetic acid at 100 degC for 17 days by 1H NMR analysis; assay type: physicochemical; details: 408 h

Compound: CC(C)(C)OC(C(=O)O)c1c(-c2ccc3c(c2)CCCO3)nc(-c2ccc(C(F)(F)F)cc2)c2ccccc12 (stereo not given)
- IC50 [1]: 7.64 µM

Compound: CC(C)(C)OC(C(=O)O)c1c(-c2ccc3c(c2)CCCO3)nc(-c2ccccc2)c2ccccc12 (stereo not given)
- IC50 [1]: 4.65 µM

Compound: CC(C)(C)OC(C(=O)O)c1c(-c2ccc3c(c2)CCCO3)nc(-c2cnn(Cc3ccccc3)c2)c2ccccc12 (stereo not given)
- EC50 [4]: 0.73 µM
- IC50 [5]: 23.4 µM
- IC50 [1]: 0.48 µM
- EC50 [6]: < 1.79 µM
- IC50 [7]: 36.7 µM
- EC50 [8]: 1.1 µM
- IC50 [9]: 0.21 µM

Compound: COc1cccc(-c2nc(-c3ccccc3)c(C(OC(C)(C)C)C(=O)O)c3ccccc23)c1 (stereo not given)
- IC50 [1]: 13.8 µM

Compound: CC(C)(C)OC(C(=O)O)c1c(-c2ccccc2)nc(-c2ccccc2)c2ccccc12 (stereo not given)
- IC50 [1]: 10.1 µM

Compound: Cc1nc2ccc(Br)cc2c(-c2ccc(Cl)cc2)c1C(OC(C)(C)C)C(=O)O (stereo not given)
- EC50 [4]: 12.2 µM
- IC50 [5]: 0.15 µM
- IC50 [1]: 0.12 µM
- EC50 [6]: 0.146 µM
- IC50 [7]: 0.15 µM
- EC50 [8]: 0.63 µM
- IC50 [9]: 0.136 µM

Compound: CC(C)(C)OC(C(=O)O)c1c(-c2ccc3c(c2)CCCO3)nc(-c2cccc(C(=O)O)c2)c2ccccc12 (stereo not given)
- IC50 [1]: 12.3 µM

Compound: O=Cc1c(-c2ccc3c(c2)CCCO3)nc(-c2ccc(-c3ccccc3)cc2)c2ccccc12
- Drug metabolism [12]: Metabolite_Detected
- Drug metabolism [13]: Metabolite_Detected

Compound: CC(C)(C)OC(C(=O)O)c1c(-c2ccc3c(c2)CCCO3)nc(-c2cccc(F)c2)c2ccccc12 (stereo not given)
- Drug metabolism [2]: Metabolite detected
- IC50 [1]: 12.9 µM
- Stability [3]: Stable

Further molecules by falling IC50 [1], results first:

- IC50 [1]: 3.55 µM
Compound: CC(C)(C)OC(C(=O)O)c1c(-c2ccc3c(c2)CCCO3)nc(-c2ccco2)c2ccccc12 (stereo not given)

- IC50 [1]: 1.22 µM
Compound: CC(C)(C)OC(C(=O)O)c1c(-c2ccc3c(c2)CCCO3)nc(-c2ccc3c(c2)CCCO3)c2ccccc12 (stereo not given)

- IC50 [1]: 1.14 µM
- Stability [3]: Stable
Compound: COc1cccc(-c2nc(-c3ccc4c(c3)CCCO4)c(C(OC(C)(C)C)C(=O)O)c3ccccc23)c1 (stereo not given)
- Drug metabolism [2]: Metabolite detected

- IC50 [1]: 1 µM
Compound: COc1ccc(-c2nc(-c3ccc4c(c3)CCCO4)c(C(OC(C)(C)C)C(=O)O)c3ccccc23)cc1 (stereo not given)

- IC50 [1]: 0.83 µM
- Stability [3]: Stable
Compound: CC(C)(C)OC(C(=O)O)c1c(-c2ccc3c(c2)CCCO3)nc(-c2ccc(-c3ccccc3)cc2)c2ccccc12 (stereo not given)
- Drug metabolism [10]: Metabolite detected
- Drug metabolism [11]: Metabolite detected

- IC50 [1]: 0.81 µM
Compound: CC(C)(C)OC(C(=O)O)c1c(-c2ccc3c(c2)CCCO3)nc(-c2nc3cc(Cl)ccc3[nH]2)c2ccccc12 (stereo not given)
